The values that follow come from the Deep4Chem optical property database.

SMILES strings stand for the structures.

The nature of this data set: solvent given as SMILES.

On to `CCCCCCCCCCOc1ccc(C#Cc2ccc(C#Cc3ccc(OCCCCCCCCCC)c(OCCCCCCCCCC)c3)c3nc4c5ccccc5c5ccccc5c4nc23)cc1OCCCCCCCCCC`, for which the absorption maximum was 461 nm (in C1CCOC1), 461 nm (in Cc1ccccc1) and 461 nm (in ClCCl).
As to `CCCCCc1ccc(-c2ccc(C#Cc3cc(C#Cc4ccc(-c5ccc(CCCCC)cc5)cc4)c4ccc5c(C(=O)c6ccccc6)cc(C#Cc6ccc(-c7ccc(CCCCC)cc7)cc6)c6ccc3c4c65)cc2)cc1`, the absorption maximum (in ClCCl) is 466 nm.
For `CC1=CC(C)=[N+]2C1=C(c1ccc(I)cc1)c1c(C)cc(C)n1[B-]2(Oc1ccc([N+](=O)[O-])cc1)Oc1ccc([N+](=O)[O-])cc1`, the absorption maximum (in ClC(Cl)Cl) is listed as 505 nm.
`CCCCCCOc1cc(/C=C/c2cc(OCCCCCC)c(/C=C/c3cc(OCCCCCC)c(C=C(C#N)C#N)cc3OCCCCCC)cc2OCCCCCC)c(OCCCCCC)cc1C=C(C#N)C#N`: the absorption maximum (in ClCCl) is reported as 518 nm.
Still for that read-out and setting: the same measure for `CC1=C(c2ccc(N(C)C)cc2)C(C)=[N+]2C1=C(c1c(-c3ccccn3)nc3ccccn13)c1c(C)cc(C)n1[B-]2(F)F`: 538 nm; for `COc1ccc(/C=C/c2cc(/C=C/c3ccc(OC)cc3)nc(/C=C/c3ccc(N(C)C)cc3)n2)cc1`: 370 nm.
With `O=C1CC(=O)Nc2cc(Cl)ccc2N1`, the absorption maximum (in CS(C)=O) amounted to 298 nm.
For `CCCOc1ccc(/C=C/C=C/C=C/c2ccc([N+](=O)[O-])cc2)cc1`, the absorption maximum is, setting by setting: (in CC1CCCCC1) 414 nm; (in CC#N) 413 nm; (in Cc1ccccc1) 420 nm; (in ClCCl) 421 nm.
For the setting “in ClCCl”, `CN(C)c1ccc(C2=CC3=C(c4ccc([N+](=O)[O-])cc4)[C@H]4c5ccccc5[C@]3(S2)c2ccccc24)cc1` came in with an absorption maximum of 484 nm.
As to `Cc1ccc(/C=C/C(F)(F)F)c(N)c1`, the absorption maximum (in C1CCOC1) worked out at 346 nm.
With `CCOC(=O)CN(CC(=O)OCC)c1ccc(-c2cc(-c3ccncc3)nc(-c3ccncc3)c2)cc1`, the absorption maximum (in CC#N) worked out at 334 nm; the absorption maximum (in CCOC(C)=O) came to 334 nm; the absorption maximum (in CN(C)C=O) is recorded as 342 nm; the absorption maximum (in CS(C)=O) stood at 344 nm; the absorption maximum (in c1ccccc1) was found to be 332 nm.
As to `CCCCCCC(CCCCCC)N1C(=O)c2cccc3c(-c4cc(OC)c(OC)c(OC)c4)ccc(c23)C1=O`, the absorption maximum was 354.8 nm (in CCCCCC); 357 nm (in CCCCCCCCCCCCCC); 362.6 nm (in CCCCCCCCCCCO); 361.4 nm (in CCCCO); 365.6 nm (in CN(C)C=O); 360.8 nm (in Cc1ccccc1). Moreover, the absorption maximum (in ClC(Cl)Cl) was determined as 362.2 nm.
As for `CCCCCCCCC1(CCCCCCCC)c2cc(-c3ccc(C(=O)OC)cc3)ccc2-c2ccc(-c3ccc(C(=O)OC)cc3)cc21`, the absorption maximum (in ClC(Cl)Cl) stood at 341 nm.
Regarding `CCCCN1C(=O)C2=C(c3ccc(-c4ccc5c(c4)C(C)(C)c4ccccc4-5)cc3)[N-]C(=O)C2=C1c1ccc(-c2ccc3c(c2)C(C)(C)c2ccccc2-3)cc1`, the absorption maximum (in ClCCl) amounted to 594 nm.
`CC1(C)CC(NCc2ccc3ccc4cccc5ccc2c3c45)CC(C)(C)N1[O]`: the absorption maximum (in C1CCCCC1) came out at 342 nm, the absorption maximum (in CC#N) is reported as 341 nm, the absorption maximum (in CO) turned out to be 340 nm and the absorption maximum (in ClC(Cl)Cl) amounted to 344 nm.
For `CCC1=C(C)C2=Cc3cc4c(cc3B(O)N2C1=O)OCO4`, the absorption maximum runs as follows: (in CC#N) 383 nm; (in CO) 381 nm; (in CS(C)=O) 384 nm; (in ClC(Cl)Cl) 389 nm.
With `CC1(C)c2ccccc2N(c2c(F)cc(-c3nnc(-c4ccccc4)o3)cc2F)c2ccccc21`, the absorption maximum (in Cc1ccccc1) is 376 nm and the absorption maximum (in O=P(c1ccccc1)(c1ccccc1)c1ccccc1Oc1ccccc1P(=O)(c1ccccc1)c1ccccc1) worked out at 370 nm.
In turn, `CC1(C)c2ccccc2N(c2ccc3c(c2)c2cc(N4c5ccccc5C(C)(C)c5ccccc54)ccc2c2nc(C#N)c(C#N)nc32)c2ccccc21` returned an absorption maximum (in Cc1ccccc1) of 464 nm.
The compound `CC(=O)c1ccc2ccc3cccc4ccc1c2c34` displayed an absorption maximum (in C1CCOC1) of 384 nm; an absorption maximum (in CC#N) of 382 nm; an absorption maximum (in CCCCCC) of 384 nm; an absorption maximum (in CCO) of 383 nm; an absorption maximum (in CN(C)C=O) of 384 nm; an absorption maximum (in CO) of 385 nm. The absorption maximum reads like this: (in Cc1ccccc1) 387 nm; (in ClCCl) 385 nm.
With `Cc1cnc(NC(=O)C2=C([O-])c3ccccc3S(=O)(=O)N2C)s1`, the absorption maximum worked out at 371 nm (in CC#N); 369 nm (in CCCCO); 368 nm (in CCCO); 366 nm (in CCO); 364 nm (in CO).
On to `N#Cc1cccc2cc[nH]c12`, for which the absorption maximum by setting is: (in C1COCCO1) 307.36 nm; (in CC#N) 309.69 nm; (in O) 308 nm.
Turning to `CCCCCCn1c2ccccc2c2cc(-c3ccc(-c4cc(-c5ccccn5)nc(-c5ccccn5)c4)cc3)ccc21`, the absorption maximum (in ClCCl) stood at 296 nm.
As for `CC(C)(C)c1cc(C[n+]2ccc(-c3cc[n+](Cc4cc(C(C)(C)C)cc(C(C)(C)C)c4)cc3)cc2)cc(C(C)(C)C)c1`, the absorption maximum (in CC#N) was determined as 259 nm.
For `CC(C)c1ccc(/C=C/c2nc3ccc(N(C)C)cc3s2)cc1`, the absorption maximum (in C1CCCCC1) is 388 nm and the absorption maximum (in CC#N) is listed as 392 nm.
As to `COc1ccc(-c2nc3c(c4c2-c2ccccc2CC4)-c2ccccc2CC3)cc1`, the absorption maximum runs as follows: (in C1CCOC1) 322 nm; (in CC#N) 321 nm; (in CCCCCC) 322 nm; (in CCOC(C)=O) 310 nm; (in CO) 318 nm; (in CS(C)=O) 320 nm. This compound yielded an absorption maximum (in Cc1ccccc1) of 320 nm and an absorption maximum (in ClCCl) of 322 nm.
With `O=C1C=CC2=Cc3ccccc3B(O)N12`, the absorption maximum stood at 360 nm (in CC#N), 364 nm (in CO), 364 nm (in CS(C)=O) and 365 nm (in ClC(Cl)Cl).
In the case of `Cc1ccc(-c2cnc3ccc4ccccc4n23)cc1`, the absorption maximum (in ClCCl) came out at 324 nm.
For `CCC1=C(C2=C(C3=C(CC)S(=O)(=O)c4cc(-c5ccc(C(C)=O)s5)ccc43)C(F)(F)C(F)(F)C2(F)F)c2ccc(-c3ccc(C(C)=O)s3)cc2S1(=O)=O`, for the setting “in C1COCCO1”, the absorption maximum worked out at 363 nm.
Regarding `c1csc(-c2ccc3c4ccc(-c5cccs5)cc4n(-c4cccs4)c3c2)c1`, the absorption maximum (in ClCCl) is 352 nm.
For the compound `CN(C)c1cc2oc3cc(N(C)C)c(F)cc3c(=O)c2cc1F`, for the setting “in CCO”, the absorption maximum was 378 nm.
`N#Cc1cccc(N2c3ccccc3C(c3ccccc3)(c3ccccc3)c3ccccc32)c1` came in with an absorption maximum (in Cc1ccccc1) of 284 nm.
Still for that read-out and setting: the same measure for `c1ccc(-c2nc(-c3ccc(N4c5ccccc5C(c5ccccc5)(c5ccccc5)c5ccccc54)cc3)cc(-c3ccccn3)n2)cc1`: 371.33 nm.
Compound `c1ccc(-c2nc(-c3ccc(N4c5ccccc5Oc5ccccc54)cc3)nn2-c2ccc(N3c4ccccc4Oc4ccccc43)cc2)nc1` gave an absorption maximum (in ClCCl) of 333 nm.
`CCNCC`: where the note is “in CCCCCC”, the absorption maximum was determined as 193 nm.
Consider `CCO[B-]1(OCC)n2c(C)cc(C)c2C(c2ccc(I)cc2)=C2C(C)=CC(C)=[N+]21`, for which the absorption maximum (in ClC(Cl)Cl) was found to be 505 nm.
For the setting “in ClCCl”, `CCN(CC)c1ccc2c(c1)oc(=O)c1cnc3c(cnn3-c3ccccc3)c12` gave an absorption maximum of 405 nm.
For `O=c1c2ccccc2n2c3ccccc3c(=O)c3cc(-c4ccccc4)cc1c32`, the absorption maximum was determined as 447 nm (in CC#N); 437 nm (in CCCCCC); 440 nm (in CCCCOCCCC); 443 nm (in CCOC(C)=O); 450 nm (in CN(C)C=O); 445.76 nm (in Cc1ccccc1).
Consider `CC(=O)[B-]1(C(C)=O)OC(c2ccccc2)=CC(c2ccccc2)=[O+]1`, for which the absorption maximum by setting is: (in CC#N) 377 nm; (in ClC(Cl)(Cl)Cl) 382 nm.
`CC(C)(C)c1ccc(-c2nc3c4ccc(-c5ccccc5)cc4c4cc(-c5ccccc5)ccc4c3n2-c2ccc(C(C)(C)C)cc2)cc1` yielded an absorption maximum (in C1CCOC1) of 331 nm; an absorption maximum (in C1COCCO1) of 333 nm; an absorption maximum (in CC#N) of 329 nm; an absorption maximum (in CCCCCC) of 331 nm; an absorption maximum (in CCCCOCCCC) of 331 nm; an absorption maximum (in CCN(CC)CC) of 332 nm. This compound registered an absorption maximum (in CCOC(C)=O) of 329 nm; an absorption maximum (in CCOCC) of 330 nm; an absorption maximum (in CN(C)C=O) of 331 nm; an absorption maximum (in Cc1ccccc1) of 333 nm; an absorption maximum (in ClC=C(Cl)Cl) of 332 nm; an absorption maximum (in ClCCl) of 330 nm.
Consider `Cc1ccc(-c2cc(-c3ccccc3)c(C#N)c(=S)[nH]2)cc1`, for which the absorption maximum runs as follows: (in C1CCCCC1) 488 nm; (in C1COCCO1) 442 nm; (in CC#N) 430 nm; (in CCOCC) 440 nm; (in CN(C)C=O) 438 nm; (in ClC(Cl)(Cl)Cl) 446 nm.
The compound `CC(C)(C)c1ccc2c(c1)c1cc(C(C)(C)C)ccc1n2-c1ccc2c(c1)C(=O)c1ccc(-n3c4ccc(C(C)(C)C)cc4c4cc(C(C)(C)C)ccc43)cc1C2=O` returned an absorption maximum (in Cc1ccccc1) of 463 nm.
`COC(=O)c1nc(Br)c(-c2ccccc2)o1` yielded an absorption maximum (in C1CCCCC1) of 307 nm.
`CC(C)(C)c1ccc(N(c2ccc(C(C)(C)C)cc2)c2cc(N(c3ccc(C(C)(C)C)cc3)c3ccc(C(C)(C)C)cc3)c3ccc4cc(C(C)(C)C)cc5ccc2c3c54)cc1` came in with an absorption maximum (in ClCCl) of 425 nm.
`O=S1(=O)C2=C(c3ccccc31)C1(c3ccccc32)c2ccccc2-c2sc3ccccc3c21` (centres undefined) gave an absorption maximum (in ClCCl) of 360 nm.
For `Cc1ccc(-c2ccc(/C=C/c3cccs3)cn2)nc1`, for the setting “in CC#N”, the absorption maximum was determined as 348 nm.
Compound `O=C1NC(=O)c2ccc3c4ccc5c6c(ccc(c7ccc1c2c73)c64)C(=O)N(c1ccc(Cl)cc1)C5=O` yielded an absorption maximum (in CN(C)C=O) of 526 nm.
